From article PMC11790914, “Chemogenomics for steroid hormone receptors (NR3)” (Communications Chemistry, 2025)
Where “and” joins values, the source holds several entries; their conditions need not be identical. Equal values may be shown once.

Assays:
BRPF1 = molecular target: T1, BRPF1 (Homo sapiens, UniProt P55201); assay: Liability panel screening by DSF: BRPF1; type: binding; conditions: DSF, 20 µM, n=2; read-out: Mean ΔTM BRPF1
T1 construct: This panel comprised ten highly ligandable kinases and bromodomains; made in house
T1 sequence (P55201 628-732 limits assumed): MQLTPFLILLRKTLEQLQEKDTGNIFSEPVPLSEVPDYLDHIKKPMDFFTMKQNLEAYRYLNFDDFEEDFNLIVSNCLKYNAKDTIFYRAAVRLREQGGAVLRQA
In short: (§1)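 ∆Tm in K was taken from Boltzmann-fitted unfolding inflection points, run in duplicate with a temperature ramp of 3 °C per minute up to 85 °C. Each recombinant protein (2 µM) was in HEPES 10 mM pH 7.5 and NaCl 500 mM, with SYPRO Orange dye at 1:1000.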

[1] = system: ATF6 activity in Hela ATF6 reporter cells; assay: Endoplasmic reticulum stress assay (ATF6 Renilla luciferase reporter, tunicamycin); type: cell-based; conditions: for ATF6 activity (tunicamycin-induced endoplasmic reticulum stress): Hela ATF6 reporter cells, tunicamycin 100 ng/mL, 18 h
In short: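 ER stress was induced by 100 ng/mL tunicamycin added 4 h after compound (0.1% DMSO) to HeLa ATF6 reporter cells. After 18 h more, Renilla luciferase signal was read and expressed relative to DMSO control, n=5 biological replicates.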

HEK293T cells [2] = assay: Cytotoxicity: growth-rate (change in confluence over 24 h); conditions: normalized to 0.1% DMSO control, single replicates (n=1...)
FGFR3 = molecular target: T2, FGFR3 (Homo sapiens, UniProt P22607); assay: Liability panel screening by DSF: FGFR3; type: binding; conditions: DSF, 20 µM, n=2; read-out: Mean ΔTM FGFR3
T2 construct: made in house
T2 sequence (P22607 23-806, species assumed): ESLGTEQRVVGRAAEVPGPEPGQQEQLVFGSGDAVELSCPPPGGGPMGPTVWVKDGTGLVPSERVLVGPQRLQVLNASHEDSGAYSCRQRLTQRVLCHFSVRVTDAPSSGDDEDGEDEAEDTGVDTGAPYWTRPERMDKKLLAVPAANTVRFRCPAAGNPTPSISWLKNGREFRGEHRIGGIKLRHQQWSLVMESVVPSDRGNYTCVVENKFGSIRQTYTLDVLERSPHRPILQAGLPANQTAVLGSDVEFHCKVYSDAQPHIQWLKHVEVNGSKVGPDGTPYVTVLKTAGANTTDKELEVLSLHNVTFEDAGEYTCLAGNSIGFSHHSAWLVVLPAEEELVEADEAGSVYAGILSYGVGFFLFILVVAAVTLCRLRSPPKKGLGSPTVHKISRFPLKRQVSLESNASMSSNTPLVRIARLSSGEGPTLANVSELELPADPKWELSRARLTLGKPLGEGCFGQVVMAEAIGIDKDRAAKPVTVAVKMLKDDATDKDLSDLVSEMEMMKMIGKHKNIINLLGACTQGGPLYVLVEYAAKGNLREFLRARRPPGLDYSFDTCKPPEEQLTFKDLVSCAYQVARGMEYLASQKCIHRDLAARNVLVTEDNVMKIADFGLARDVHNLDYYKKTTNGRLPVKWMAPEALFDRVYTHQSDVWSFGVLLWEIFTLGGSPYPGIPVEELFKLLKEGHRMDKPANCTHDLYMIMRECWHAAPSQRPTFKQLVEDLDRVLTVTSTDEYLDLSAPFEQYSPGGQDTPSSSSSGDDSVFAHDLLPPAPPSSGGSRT
In short: as §1

BRD4 = molecular target: T3, BRD4 (Homo sapiens, UniProt O60885); assay: Liability panel screening by DSF: BRD4; type: binding; conditions: DSF, 20 µM, n=2; read-out: Mean ΔTM BRD4
T3 construct: This panel comprised ten highly ligandable kinases and bromodomains; made in house
In short: as §1

CDK2 = molecular target: T4, CDK2 (Homo sapiens, UniProt P24941); assay: Liability panel screening by DSF: CDK2; type: binding; conditions: DSF, 20 µM, n=2; read-out: Mean ΔTM CDK2
T4 construct: made in house
In short: as §1

GSK3B = molecular target: T5, GSK3B (Homo sapiens, UniProt P49841); assay: Liability panel screening by DSF: GSK3B; type: binding; conditions: DSF, 20 µM, n=2; read-out: Mean ΔTM GSK3B
T5 construct: made in house
T5 sequence (P49841 whole entry, species assumed): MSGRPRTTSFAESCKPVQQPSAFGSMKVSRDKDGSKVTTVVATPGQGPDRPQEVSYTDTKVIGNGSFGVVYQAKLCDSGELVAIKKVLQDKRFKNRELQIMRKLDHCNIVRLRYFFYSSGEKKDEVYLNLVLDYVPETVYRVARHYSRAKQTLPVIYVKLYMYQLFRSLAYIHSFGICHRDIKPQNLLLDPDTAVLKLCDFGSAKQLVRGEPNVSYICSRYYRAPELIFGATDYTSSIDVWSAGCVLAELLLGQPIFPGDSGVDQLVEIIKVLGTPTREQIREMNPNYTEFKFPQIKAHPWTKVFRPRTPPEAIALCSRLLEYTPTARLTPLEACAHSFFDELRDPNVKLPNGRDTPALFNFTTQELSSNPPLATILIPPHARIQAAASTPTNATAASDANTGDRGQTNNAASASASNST

MAPK1 = molecular target: T6, MAPK1 (Homo sapiens, UniProt P28482); assay: Liability panel screening by DSF: MAPK1; type: binding; conditions: DSF, 20 µM, n=2; read-out: Mean ΔTM MAPK1
T6 construct: made in house
T6 sequence (P28482 whole entry, species assumed): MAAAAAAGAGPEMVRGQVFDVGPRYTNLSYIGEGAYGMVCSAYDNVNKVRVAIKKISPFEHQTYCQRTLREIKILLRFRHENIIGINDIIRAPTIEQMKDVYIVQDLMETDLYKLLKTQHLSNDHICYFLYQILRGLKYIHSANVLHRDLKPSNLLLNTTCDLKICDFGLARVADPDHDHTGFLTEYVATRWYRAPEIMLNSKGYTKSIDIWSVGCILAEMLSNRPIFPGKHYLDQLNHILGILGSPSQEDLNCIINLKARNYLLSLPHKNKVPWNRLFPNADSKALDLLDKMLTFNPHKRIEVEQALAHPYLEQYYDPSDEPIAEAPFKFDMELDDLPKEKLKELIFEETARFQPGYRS
In short: as §1

ABL1 = molecular target: T7, ABL1 (Homo sapiens, UniProt P00519); assay: Liability panel screening by DSF: ABL1; type: binding; conditions: DSF, 20 µM, n=2; read-out: Mean ΔTM ABL1
T7 construct: made in house
T7 sequence (P00519 whole entry, species assumed): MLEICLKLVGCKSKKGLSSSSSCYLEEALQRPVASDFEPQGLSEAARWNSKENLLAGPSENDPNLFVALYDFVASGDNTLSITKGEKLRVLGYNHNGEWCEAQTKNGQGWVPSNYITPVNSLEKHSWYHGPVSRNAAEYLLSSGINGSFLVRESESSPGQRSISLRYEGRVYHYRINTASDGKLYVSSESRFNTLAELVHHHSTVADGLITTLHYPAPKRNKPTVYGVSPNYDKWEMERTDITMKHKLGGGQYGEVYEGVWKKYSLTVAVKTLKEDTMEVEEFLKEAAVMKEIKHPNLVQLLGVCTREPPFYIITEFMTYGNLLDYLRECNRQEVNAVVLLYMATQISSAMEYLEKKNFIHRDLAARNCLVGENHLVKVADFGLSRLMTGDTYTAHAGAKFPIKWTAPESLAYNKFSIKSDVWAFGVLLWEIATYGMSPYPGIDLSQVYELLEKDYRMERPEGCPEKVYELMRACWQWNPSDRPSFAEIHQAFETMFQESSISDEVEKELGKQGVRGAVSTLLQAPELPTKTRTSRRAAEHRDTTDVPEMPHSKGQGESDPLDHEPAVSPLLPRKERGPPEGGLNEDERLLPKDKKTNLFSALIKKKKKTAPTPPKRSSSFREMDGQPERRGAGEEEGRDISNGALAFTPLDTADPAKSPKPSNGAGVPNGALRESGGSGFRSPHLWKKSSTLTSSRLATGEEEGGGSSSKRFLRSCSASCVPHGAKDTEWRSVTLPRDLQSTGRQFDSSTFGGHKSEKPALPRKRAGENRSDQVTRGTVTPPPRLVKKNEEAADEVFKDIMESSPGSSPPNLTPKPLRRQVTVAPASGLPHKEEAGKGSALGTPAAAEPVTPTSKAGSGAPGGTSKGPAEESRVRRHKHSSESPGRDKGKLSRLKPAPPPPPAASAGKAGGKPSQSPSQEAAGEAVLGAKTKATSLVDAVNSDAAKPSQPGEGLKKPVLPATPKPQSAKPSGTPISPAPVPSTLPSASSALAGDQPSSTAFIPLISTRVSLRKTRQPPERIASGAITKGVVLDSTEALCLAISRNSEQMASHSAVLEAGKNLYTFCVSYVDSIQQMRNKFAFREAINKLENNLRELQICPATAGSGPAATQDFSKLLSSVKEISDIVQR
In short: as §1

[3] = system: NF-κB activity in HEK293 NF-κB reporter cells; assay: NF-kB activity assay (GFP reporter, ionomycin/PMA); type: cell-based; conditions: n=3
In short: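 Reporter readout: GFP-expressing cells normalized to confluence, imaged every 90 min across 24 h after ionomycin (100 ng/mL)/PMA (10 ng/mL) stimulation of HEK293 cells pre-treated 4 h with compound (0.1% DMSO); triplicate independent experiments.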

AURKA = molecular target: T8, AURKA (Homo sapiens, UniProt O14965); assay: Liability panel screening by DSF: AURKA; type: binding; conditions: DSF, 20 µM, n=2; read-out: Mean ΔTM AURKA
T8 construct: made in house
T8 sequence (O14965 1-403): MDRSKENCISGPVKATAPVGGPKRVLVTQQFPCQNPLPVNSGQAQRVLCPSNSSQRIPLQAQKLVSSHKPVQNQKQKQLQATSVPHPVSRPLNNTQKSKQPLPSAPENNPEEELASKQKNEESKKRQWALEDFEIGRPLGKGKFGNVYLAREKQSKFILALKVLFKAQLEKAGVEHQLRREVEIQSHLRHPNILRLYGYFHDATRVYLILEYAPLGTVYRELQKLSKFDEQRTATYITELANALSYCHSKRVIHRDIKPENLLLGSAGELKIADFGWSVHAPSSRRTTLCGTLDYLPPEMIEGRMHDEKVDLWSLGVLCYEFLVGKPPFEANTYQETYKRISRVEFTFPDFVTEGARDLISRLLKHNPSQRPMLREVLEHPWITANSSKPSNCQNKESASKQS
In short: as §1

HEK293T cells [4] = assay: Cytotoxicity: apoptosis induction (caspase-3/7 DEVD fluorogenic DNA dye); conditions: HEK293T, 24 h, apoptotic cell count normalized to 0.1% DMSO, single replicates
TRIM24 = molecular target: T9, TRIM24 (Homo sapiens, UniProt O15164); assay: Liability panel screening by DSF: TRIM24; type: binding; conditions: DSF, 20 µM, n=2; read-out: Mean ΔTM TRIM24
T9 construct: This panel comprised ten highly ligandable kinases and bromodomains; made in house
T9 sequence (O15164 899-1004 limits assumed): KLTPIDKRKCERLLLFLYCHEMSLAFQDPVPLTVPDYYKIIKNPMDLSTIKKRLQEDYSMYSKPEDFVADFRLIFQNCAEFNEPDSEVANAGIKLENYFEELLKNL
In short: as §1

CC/C(=C(\c1ccc(O)cc1)c1ccc(OCCN(C)C)cc1)c1ccccc1 [(Z)-4-Hydroxytamoxifen]
ΔTm at 20 µM (BRPF1): -1.98 °C
ATF6 activity (tunicamycin-induced endoplasmic reticulum stress) ([1]; 0.3 µM): mediated resolution of the tunicamycin-induced endoplasmic reticulum stress
ATF6 activity (tunicamycin-induced endoplasmic reticulum stress) ([1]; 3 µM): lacked this effect
activity at 0.3 µM ([1]; Homo sapiens, HeLa, 0.3 µM, single replicates n=1 to n=5, read-out: ER stress [rel. ATF6 activity]): 51%
Growth rate [GR] (HEK293T cells [2]; 0.3 µM): 1.08 and 2.89 and 1.33 and 1.37 and 0.91 and 0.88 and 0.61 and 1.06 and 2.68 and 37.77
Growth rate [GR] (HEK293T cells [2]; 3 µM): 0.97 and 4.28 and 1.10 and 0.79 and 0.56 and 0.41 and 0.43 and 1.54 and 1.12 and 39.66
ΔTm at 20 µM (FGFR3): 0.53 °C
ΔTm at 20 µM (BRD4): -3.37 °C
ΔTm at 20 µM (CDK2): -0.23 °C
ΔTm at 20 µM (GSK3B): -1.45 °C
ΔTm at 20 µM (MAPK1): 0.0336 °C
ΔTm at 20 µM (ABL1): 0.29 °C
Mean NFκB response ([3]; 0.3 µM, 1,5 h): 2504.77 GFP+-cells/confluence ∙ 1000
Mean NFκB response ([3]; 0.3 µM, 4,5 h): 3089.76 GFP+-cells/confluence ∙ 1000
Mean NFκB response ([3]; 0.3 µM, 7,5 h): 8223.00 GFP+-cells/confluence ∙ 1000
Mean NFκB response ([3]; 0.3 µM, 10,5 h): 20009.52 GFP+-cells/confluence ∙ 1000
Mean NFκB response ([3]; 0.3 µM, 13,5 h): 28937.88 GFP+-cells/confluence ∙ 1000
Mean NFκB response ([3]; 0.3 µM, 16,6 h): 35283.33 GFP+-cells/confluence ∙ 1000
Mean NFκB response ([3]; 0.3 µM, 19,5 h): 40116.67 GFP+-cells/confluence ∙ 1000
Mean NFκB response ([3]; 0.3 µM, 22,5 h): 43200.00 GFP+-cells/confluence ∙ 1000
Mean NFκB response ([3]; 0.3 µM, 3 h): 2555.89 GFP+-cells/confluence ∙ 1000
Mean NFκB response ([3]; 0.3 µM, 6 h): 4572.00 GFP+-cells/confluence ∙ 1000
Mean NFκB response ([3]; 0.3 µM, 9 h): 14658.14 GFP+-cells/confluence ∙ 1000
Mean NFκB response ([3]; 0.3 µM, 12 h): 24637.27 GFP+-cells/confluence ∙ 1000
Mean NFκB response ([3]; 0.3 µM, 15 h): 32269.00 GFP+-cells/confluence ∙ 1000
Mean NFκB response ([3]; 0.3 µM, 18 h): 37590.00 GFP+-cells/confluence ∙ 1000
Mean NFκB response ([3]; 0.3 µM, 21 h): 41653.33 GFP+-cells/confluence ∙ 1000
Mean NFκB response ([3]; 0.3 µM, 24 h): 44413.33 GFP+-cells/confluence ∙ 1000
Mean NFκB response ([3]; 3 µM, 1,5 h): 2613.90 GFP+-cells/confluence ∙ 1000
Mean NFκB response ([3]; 3 µM, 4,5 h): 3334.14 GFP+-cells/confluence ∙ 1000
Mean NFκB response ([3]; 3 µM, 7,5 h): 7514.38 GFP+-cells/confluence ∙ 1000
Mean NFκB response ([3]; 3 µM, 10,5 h): 19242.21 GFP+-cells/confluence ∙ 1000
Mean NFκB response ([3]; 3 µM, 13,5 h): 28764.40 GFP+-cells/confluence ∙ 1000
Mean NFκB response ([3]; 3 µM, 16,6 h): 35561.15 GFP+-cells/confluence ∙ 1000
Mean NFκB response ([3]; 3 µM, 19,5 h): 40217.80 GFP+-cells/confluence ∙ 1000
Mean NFκB response ([3]; 3 µM, 22,5 h): 43818.60 GFP+-cells/confluence ∙ 1000
Mean NFκB response ([3]; 3 µM, 3 h): 2770.52 GFP+-cells/confluence ∙ 1000
Mean NFκB response ([3]; 3 µM, 6 h): 4451.37 GFP+-cells/confluence ∙ 1000
Mean NFκB response ([3]; 3 µM, 9 h): 13511.36 GFP+-cells/confluence ∙ 1000
Mean NFκB response ([3]; 3 µM, 12 h): 24240.37 GFP+-cells/confluence ∙ 1000
Mean NFκB response ([3]; 3 µM, 15 h): 32735.51 GFP+-cells/confluence ∙ 1000
Mean NFκB response ([3]; 3 µM, 18 h): 38442.69 GFP+-cells/confluence ∙ 1000
Mean NFκB response ([3]; 3 µM, 21 h): 42295.79 GFP+-cells/confluence ∙ 1000
Mean NFκB response ([3]; 3 µM, 24 h): 44964.03 GFP+-cells/confluence ∙ 1000
ΔTm at 20 µM (AURKA): 0.07 °C
Apoptosis induction [AI] (HEK293T cells [4]; 0.3 µM): 0.84 and 1.40 and 1.81 and 1.38 and 0.62 and 0.65
Apoptosis induction [AI] (HEK293T cells [4]; 3 µM): 1.07 and 1.34 and 1.98 and 1.60 and 1.04 and 1.22
ΔTm at 20 µM (TRIM24): -0.41 °C

CCN(CC)c1ccc(/C=N/NC(=O)c2ccc(O)cc2)cc1 [DY131]
ΔTm at 20 µM (BRPF1): 1.09 °C
ATF6 activity (tunicamycin-induced endoplasmic reticulum stress) ([1]; compounds at recommended concentrations, n = 5): strongly ameliorated the tunicamycin-induced endoplasmic reticulum stress
activity at 3 µM ([1]; Homo sapiens, HeLa, 3 µM, single replicates n=1 to n=5, read-out: ER stress [rel. ATF6 activity]): 25%
Growth rate [GR] (HEK293T cells [2]; 3 µM): 0.59 and 11.37 and 0.74 and 0.90 and 0.70 and 0.29 and 0.57 and 4.91 and 1.76 and 192.70
ΔTm at 20 µM (FGFR3): 0.00876 °C
ΔTm at 20 µM (BRD4): -0.92 °C
ΔTm at 20 µM (CDK2): 0.35 °C
ΔTm at 20 µM (GSK3B): -0.28 °C
ΔTm at 20 µM (MAPK1): 0.23 °C
ΔTm at 20 µM (ABL1): 0.66 °C
Mean NFκB response ([3]; 3 µM, 1,5 h): 3734.45 GFP+-cells/confluence ∙ 1000
Mean NFκB response ([3]; 3 µM, 4,5 h): 4226.03 GFP+-cells/confluence ∙ 1000
Mean NFκB response ([3]; 3 µM, 7,5 h): 9363.33 GFP+-cells/confluence ∙ 1000
Mean NFκB response ([3]; 3 µM, 10,5 h): 20103.33 GFP+-cells/confluence ∙ 1000
Mean NFκB response ([3]; 3 µM, 13,5 h): 29726.67 GFP+-cells/confluence ∙ 1000
Mean NFκB response ([3]; 3 µM, 16,6 h): 36476.67 GFP+-cells/confluence ∙ 1000
Mean NFκB response ([3]; 3 µM, 19,5 h): 41143.33 GFP+-cells/confluence ∙ 1000
Mean NFκB response ([3]; 3 µM, 22,5 h): 44036.67 GFP+-cells/confluence ∙ 1000
Mean NFκB response ([3]; 3 µM, 3 h): 4084.29 GFP+-cells/confluence ∙ 1000
Mean NFκB response ([3]; 3 µM, 6 h): 5799.09 GFP+-cells/confluence ∙ 1000
Mean NFκB response ([3]; 3 µM, 9 h): 14733.33 GFP+-cells/confluence ∙ 1000
Mean NFκB response ([3]; 3 µM, 12 h): 25326.67 GFP+-cells/confluence ∙ 1000
Mean NFκB response ([3]; 3 µM, 15 h): 33133.33 GFP+-cells/confluence ∙ 1000
Mean NFκB response ([3]; 3 µM, 18 h): 38383.33 GFP+-cells/confluence ∙ 1000
Mean NFκB response ([3]; 3 µM, 21 h): 42820.00 GFP+-cells/confluence ∙ 1000
Mean NFκB response ([3]; 3 µM, 24 h): 45096.67 GFP+-cells/confluence ∙ 1000
ΔTm at 20 µM (AURKA): -2.05 °C
Apoptosis induction [AI] (HEK293T cells [4]; 3 µM): -15.91 and -17.65 and -9.63 and -8.53 and 1.25 and 1.40
ΔTm at 20 µM (TRIM24): -3.28 °C
